The values below come from publication PMC9322123, “Design and Synthesis of New Pyrimidine-Quinolone Hybrids as Novel hLDHA Inhibitors” (Pharmaceuticals, 2022).

Test [1] concerns the target T1, hLDHA (Homo sapiens, UniProt P00338).
T1 construct: purchased Abcam
Put plainly: hLDHA enzymatic assay (kinetic fluorometric, pyruvate substrate, NADH co-factor). The conditions noted are these: for IC50: hLDHA, 1 mM pyruvate, 151 µM β-NADH, compounds 0.048–100 µM, n = 3. The test is classed as biochemical. On the procedure:
The inhibitory activity of the pyrimidine-quinolone hybrids 10, 15, 19, and 24–31(a–c) against the hLDHA enzyme was measured by a kinetic spectrofluorometric assay.
hLDHA activity was determined throughout a fluorometric method with pyruvate as substrate and NADH co-factor, as previously reported and modified as described here: in each well, the final volume was set to 200 µL, and the final concentrations were 100 mM potassium phosphate buffer, 0.041 units/mL hLDHA (95%, specific activity >300 units/mg and concentration of 0.5 mg/mL, Abcam, Cambridge, United Kingdom), 151 µM β-NADH, 1 mM pyruvate (saturated conditions), and DMSO solutions (2%, v/v) of pure compounds at concentrations in the range of 0.048–100 µM. The reaction was initiated by the addition of pyruvate, and the NADH concentration decrease was measured for 10 min in a TECAN Infinite 200 Pro M Plex fluorescence plate reader at 28 °C, with excitation at 340 nm and emission at 460 nm. The percentage of activity for each measure was calculated by comparison between the maximum slope of each compound concentration and the maximum slope when no inhibitor (DMSO only) was in the well (100% enzymatic activity). The compound 3-[[3[(cyclopropylamino)sulfonyl]-7-(2,4-dimethoxy-5-pyrimidinyl)-4-quinolinyl]amino]-5-(3,5-difluorophenoxy)benzoic acid (GSK 2837808 A, Tocris, Minneapolis, MN, USA) was used as a positive control.
The measurements were obtained thrice, and data were expressed as the mean ± SD of n = 3 replicates for IC50 values. As-obtained data were later plotted in GraphPad Prism version 5.00 for Windows (GraphPad Software, La Jolla, CA, USA). Nonlinear regression analysis was chosen for dose response curve, representing the logarithm of inhibitor concentration vs. normalized enzymatic activity in order to calculate IC50 values.

Test [2] deals with T1, hLDHA. Details: method as in PMID 25466195. The conditions noted are these: W31, ligand of complex 4R68; cited from earlier work.

Like-named read-outs stand apart in the source and are kept apart here. A value given as a limit tells only on which side of the number the result lay.

In turn, `O=c1[nH]c2ccccc2cc1CSc1cccc(Nc2nccc(-c3ccc4ccccc4c3)n2)c1` [Compound 35a, 3-(((3-((4-(Naphthalen-2-yl)pyrimidin-2-yl)amino)phenyl)thio)methyl)quinolin-2(1H)-one] showed an IC50 on hLDHA [1] of 19.6 µM.
On the same count and under the same terms, the result for `O=c1[nH]c2ccc(Cl)cc2cc1CSc1cccc(Nc2nccc(-c3ccc4ccccc4c3)n2)c1` [Compound 35b, 6-Chloro-3-(((3-((4-(naphthalen-2-yl)pyrimidin-2-yl)amino)phenyl)thio)me-thyl)quinolin-2(1H)-one] reads 24.6 µM; that for `O=c1[nH]c2ccccc2cc1CSc1ccc(Nc2nccc(-c3ccc4ccccc4c3)n2)cc1` [Compound 30a, 3-(((4-((4-(Naphthalen-2-yl)pyrimidin-2-yl)amino)phenyl)thio)methyl)quinolin-2(1H)-one], 62.9 µM; that for `COc1ccc2[nH]c(=O)c(CSc3ccc(Nc4nccc(-c5ccc6ccccc6c5)n4)cc3)cc2c1` [Compound 30c, 6-Methoxy-3-(((4-((4-(naphthalen-2-yl)pyrimidin-2-yl)amino)phenyl)thio)methyl)quinolin-2(1H)-one], > 100 µM.
Still for that read-out and setting: the value for `O=c1[nH]c2ccccc2cc1CSc1ccc(Nc2nccc(-c3ccc(Cl)cc3)n2)cc1` [Compound 28a, 3-(((4-((4-(4-Chlorophenyl)pyrimidin-2-yl)amino)phenyl)thio)methyl)quinolin-2(1H)-one] was > 100 µM; that for `O=c1[nH]c2ccccc2cc1COc1ccccc1Oc1nccc(-c2ccc(Cl)cc2)n1` [Compound 19, 3-((2-((4-(4-Chlorophenyl)pyrimidin-2-yl)oxy)phenoxy)methyl)quinolin-2(1H)-one] was > 100 µM.
For `C[C@H](OC(=O)Cc1ccc(Cl)c(SC2=C(O)C[C@@H](c3c(Cl)cccc3Cl)CC2=O)c1)c1ccccc1` [Compound W31], the half-inhibitory concentration (IC50) on hLDHA [2] was 0.006 µM.
At hLDHA [1], `COc1ccc2[nH]c(=O)c(CSc3ccccc3Nc3nccc(-c4ccc(C(F)(F)F)cc4)n3)cc2c1` [Compound 25c, 6-Methoxy-3-(((2-((4-(4-(trifluoromethyl)phenyl)pyrimidin-2-yl)amino)phenyl)thio)methyl)quinolin-2(1H)-one] returned an IC50 of 71.8 µM.
As to `O=c1[nH]c2ccc(Cl)cc2cc1CSc1ccccc1Nc1nccc(-c2ccc(Cl)cc2)n1` [Compound 24b, 6-Chloro-3-(((2-((4-(4-chlorophenyl)pyrimidin-2-yl)amino)phenyl)thio)meth-yl)quinolin-2(1H)-one], at hLDHA [1], the concentration for half-maximal inhibition (IC50) came out at 34.8 µM.
Same read-out and setting: the result for `O=c1[nH]c2ccc(Cl)cc2cc1CSc1ccc(Nc2nccc(-c3ccc(C(F)(F)F)cc3)n2)cc1` [Compound 29b, 6-Chloro-3-(((4-((4-(4-(trifluoromethyl)phenyl)pyrimidin-2-yl)amino)phenyl)thio)methyl)quinolin-2(1H)-one] reads 83.2 µM; that for `COc1ccc2[nH]c(=O)c(CSc3ccc(Nc4nccc(-c5ccc(Cl)cc5)n4)cc3)cc2c1` [Compound 28c, 3-(((4-((4-(4-Chlorophenyl)pyrimidin-2-yl)amino)phenyl)thio)methyl)-6-methoxyquinolin-2(1H)-one], > 100 µM; that for `O=c1[nH]c2ccccc2cc1CSc1ccccc1Nc1nccc(-c2ccc(Cl)cc2)n1` [Compound 24a, 3-(((2-((4-(4-Chlorophenyl)pyrimidin-2-yl)amino)phenyl)thio)methyl)quinolin-2(1H)-one], 31.5 µM.
Same read-out and setting: the result for `O=c1[nH]c2ccc(Cl)cc2cc1CSc1ccc(Nc2nccc(-c3ccc(Cl)cc3)n2)cc1` [Compound 28b, 6-Chloro-3-(((4-((4-(4-chlorophenyl)pyrimidin-2-yl)amino)phenyl)thio)meth-yl)quinolin-2(1H)-one] reads > 100 µM.
As to `O=c1[nH]c2ccccc2cc1CSc1ccc(Nc2nccc(-c3ccc4c(c3)OCO4)n2)cc1` [Compound 31a, 3-(((4-((4-(Benzo[d][1,3]dioxol-5-yl)pyrimidin-2-yl)amino)phenyl)thio)methyl)quinolin-2(1H)-one], at hLDHA [1], the “inhibitory activity against hLDHA (in words)” value was “inactive” and the half-inhibitory concentration (IC50) is > 100 µM.
Molecule `O=c1[nH]c2ccc(Cl)cc2cc1CSc1ccccc1Nc1nccc(-c2ccc(C(F)(F)F)cc2)n1` [Compound 25b, 6-Chloro-3-(((2-((4-(4-(trifluoromethyl)phenyl)pyrimidin-2-yl)amino)phenyl)thio)methyl)quinolin-2(1H)-one] returned an IC50 at hLDHA [1] of 42.3 µM.
On the same count and under the same terms, the result for `O=c1[nH]c2ccccc2cc1CSc1ccccc1Nc1nccc(-c2ccc3c(c2)OCO3)n1` [Compound 27a, 3-(((2-((4-(Benzo[d][1,3]dioxol-5-yl)pyrimidin-2-yl)amino)phenyl)thio)methyl)quinolin-2(1H)-one] reads > 100 µM.
On the same count and under the same terms, the result for `O=c1[nH]c2ccc(Cl)cc2cc1CSc1ccccc1Nc1nccc(-c2ccc3c(c2)OCO3)n1` [Compound 27b, 3-(((2-((4-(Benzo[d][1,3]dioxol-5-yl)pyrimidin-2-yl)amino)phenyl)thio)methyl)-6-chloroquinolin-2(1H)-one] reads 89 µM; that for `O=c1[nH]c2ccc(Cl)cc2cc1CSc1ccc(Nc2nccc(-c3ccc4ccccc4c3)n2)cc1` [Compound 30b, 6-Chloro-3-(((4-((4-(naphthalen-2-yl)pyrimidin-2-yl)amino)phenyl)thio)methyl)quinolin-2(1H)-one], > 100 µM; that for `O=c1[nH]c2ccc(Cl)cc2cc1CSc1ccccc1Nc1nccc(-c2ccc3ccccc3c2)n1` [Compound 26b, 6-Chloro-3-(((2-((4-(naphthalen-2-yl)pyrimidin-2-yl)amino)phenyl)thio)me-thyl)quinolin-2(1H)-one], 20.3 µM.
Still for that read-out and setting: the value for `O=c1[nH]c2ccc(Cl)cc2cc1CSc1ccc(Nc2nccc(-c3ccc4c(c3)OCO4)n2)cc1` [Compound 31b, 3-(((4-((4-(Benzo[d][1,3]dioxol-5-yl)pyrimidin-2-yl)amino)phenyl)thio)methyl)-6-chloroquinolin-2(1H)-one] was 49.9 µM.
The molecule `O=c1[nH]c2ccccc2cc1CSc1ccccc1Nc1nccc(-c2ccc3ccccc3c2)n1` [Compound 26a, 3-(((2-((4-(Naphthalen-2-yl)pyrimidin-2-yl)amino)phenyl)thio)methyl)quinolin-2(1H)-one] displayed a concentration for half-maximal inhibition (IC50) against hLDHA [1] of 17.8 µM.
In turn, `COc1ccc2[nH]c(=O)c(CSc3ccccc3Nc3nccc(-c4ccc5c(c4)OCO5)n3)cc2c1` [Compound 27c, 3-(((2-((4-(Benzo[d][1,3]dioxol-5-yl)pyrimidin-2-yl)amino)phenyl)thio)methyl)-6-methoxyquinolin-2(1H)-one] returned an IC50 on hLDHA [1] of 60 µM.
The same measure, in the same setting: the result for `COc1ccc2[nH]c(=O)c(CSc3cccc(Nc4nccc(-c5ccc6ccccc6c5)n4)c3)cc2c1` [Compound 35c, 6-Methoxy-3-(((3-((4-(naphthalen-2-yl)pyrimidin-2-yl)amino)phenyl)thio)methyl)quinolin-2(1H)-one] reads 50.1 µM.
Turning to `COc1ccc2[nH]c(=O)c(CSc3ccc(Nc4nccc(-c5ccc6c(c5)OCO6)n4)cc3)cc2c1` [Compound 31c, 3-(((4-((4-(Benzo[d][1,3]dioxol-5-yl)pyrimidin-2-yl)amino)phenyl)thio)methyl)-6-methoxyquinolin-2(1H)-one], on hLDHA [1], the “inhibitory activity against hLDHA (in words)” value was “inactive” and the IC50 is > 100 µM.
Regarding `O=c1[nH]c2ccccc2cc1CSc1ccc(Nc2nccc(-c3ccc(C(F)(F)F)cc3)n2)cc1` [Compound 29a, 3-(((4-((4-(4-(Trifluoromethyl)phenyl)pyrimidin-2-yl)amino)phenyl)thio)methyl)quinolin-2(1H)-one], the concentration for half-maximal inhibition (IC50) on hLDHA [1] is > 100 µM.
Regarding `COc1ccc2[nH]c(=O)c(CSc3ccccc3Nc3nccc(-c4ccc5ccccc5c4)n3)cc2c1` [Compound 26c, 6-Methoxy-3-(((2-((4-(naphthalen-2-yl)pyrimidin-2-yl)amino)phenyl)thio)methyl)quinolin-2(1H)-one], the IC50 against hLDHA [1] worked out at 27.7 µM.
Turning to `O=c1[nH]c2ccccc2cc1CSc1ccccc1Nc1nccc(-c2ccc(C(F)(F)F)cc2)n1` [Compound 25a, 3-(((2-((4-(4-(Trifluoromethyl)phenyl)pyrimidin-2-yl)amino)phenyl)thio)methyl)quinolin-2(1H)-one], on hLDHA [1], the IC50 worked out at 26.9 µM.
On the same count and under the same terms, the value for `COc1ccc2[nH]c(=O)c(CSc3ccc(Nc4nccc(-c5ccc(C(F)(F)F)cc5)n4)cc3)cc2c1` [Compound 29c, 6-Methoxy-3-(((4-((4-(4-(trifluoromethyl)phenyl)pyrimidin-2-yl)amino)phenyl)thio)methyl)quinolin-2(1H)-one] was > 100 µM.
The same measure, in the same setting: the result for `COc1ccc2[nH]c(=O)c(CSc3ccccc3Nc3nccc(-c4ccc(Cl)cc4)n3)cc2c1` [Compound 24c, 3-(((2-((4-(4-Chlorophenyl)pyrimidin-2-yl)amino)phenyl)thio)methyl)-6-methoxyquinolin-2(1H)-one] reads 79.1 µM.
